Measured values: PMC8876511, “Two out of Three Musketeers Fight against Cancer: Synthesis, Physicochemical, and Biological Properties of Phosphino Cu^I, Ru^II, Ir^III Complexes” (Pharmaceuticals, 2022)

Tests used:
HaCaT cells [1] = assay: MTT cytotoxicity assay, HaCaT (non-cancer); type: cell-based, human
Experimental: (§1) Moreover, to investigate the activity of synthesized complexes as potential anticancer agents, their cytotoxicity toward a series of human cancer cell lines and a non-cancer cell line (HaCaT) was evaluated using the MTT assay. […] In addition, we also determined the cytotoxic activity of free ligands toward selected cancer cells. […] However, this effect depends on the cell line. […] The best values of cytotoxic activity of compounds have been obtained after 72 h of cell incubation. Additionally, synthesized complexes had high sensitivity to A549 cells, so this cell line was selected as the research subject for antitumor activity.
(§2) MCF7 cell line (human breast adenocarcinoma, morphology: epithelial-like, ATCC: HTB-22) and A549 cell line (human lung adenocarcinoma, morphology: epithelial, ATCC: CCL-185); HaCaT (human keratinocyte) were cultured in Dulbecco’s Modified Eagle’s Medium (DMEM, Corning, Poland) with phenol red, supplemented with 10% fetal bovine serum (FBS) and with 1% streptomycin/penicillin. Du-145 cell line (human prostate carcinoma); derived from metastatic site: brain was cultured in minimum essential medium (MEM, Corning) with only 10% fetal bovine serum (FBS). Cultures were incubated at 37 °C under a humidified atmosphere containing 5% CO2. Cells were passaged using a solution containing 0.05% trypsin and 0.5 mM EDTA. All media and other ingredients were purchased from ALAB, Poland.
(§3) Since most of the studied compounds are insoluble in aqueous media (Dulbecco’s Modified Eagle’s Medium or minimum essential medium (MEM, Corning), therefore, they needed to be pre-dissolved in DMSO for biological tests. DMSO concentration was kept below 1% in each tested concentration of each compound. Cytotoxicity was assessed by MTT assay performed according to the protocols described previously in the following experimental approaches: 6 h + 24 h, 24 h + 24 h, and 72 h + 24 h. In brief, 5×10^3 per well (0.2 mL) in the two first approaches, while 1×10^4 cells in the case of longer incubation time were seeded in 96-well flat-bottom microtiter plate, were incubated with the tested complexes at various ranges of concentrations. After an appropriate incubation time of 6, 24, or 72 h, the cells were washed thee time with PBS and fresh medium was applied for a further 24 h in each approach. Various compound concentrations (dilutions in proper medium supplemented with 1% FBS) were tested in five replicates and repeated at least three times. Determined values of IC50 (concentration of a drug required to inhibit the growth of 50% of the cells) are given as mean + S.D. (Standard Deviation). IC50 values were determined, from the plots of cell viability in the presence of various concentrations of each compound by matching dose–response curves and using the Origin 9.0 software. Furthermore, post-treatment survival assessment of the treated cells was analyzed under an inverted fluorescence microscope (Olympus IC51, Japan) with an excitation filter 470/20 nm. For this, cells were stained with two versatile fluorescence dyes: fluorescein diacetate (FDA, 5 mg/mL) and propidium iodide (PI, 5 mg/mL) in standard conditions in the dark for 20 min. Before visualization, dyes were removed and cells were washed with PBS twice.

PANC-1 cells = assay: MTT cytotoxicity assay, PANC-1; type: cell-based, human
Experimental: as §1, §3

Solubility (qualitative) = type: physicochemical; conditions: H2O:DMSO (100:1)
[2] = Partition coefficient, shake-flask method (n-octanol/PBS); type: physicochemical
Experimental: The partition coefficient was determined by the shake-flask method. A small amount of compound was dissolved in 5 mL PBS-saturated n-octanol. The sample was sonicated until all the compound was dissolved. Next, 5 mL of PBS saturated with n-octanol was added and the experiment proceeded as before. The resulting mixture was vortexed for 30 min in horizontal position. The sample was centrifuged for 2 min at 3700 rpm to obtain a phase separation. Next, 2 mL of each phase was taken. The next steps were a 5 min sonication and measurement of absorption spectra of the obtained solutions. The calibration curve was prepared in order to determine the concentration of the tested compounds in individual solutions. It was made using the absorption intensity of the compounds in series dilution solutions in PBS saturated with octanol or octanol saturated with PBS in the concentration range c = 1–100 nM.

MCF-7 cells = assay: MTT cytotoxicity assay, MCF-7; type: cell-based, human
Experimental: as §1, §2
as §3, with “Cytotoxicity was assessed by MTT assay performed according to the protocols described previously in the following experimental approaches: 6 h + 24 h, 24 h + 24 h, and 72 h + 24 h.” left out, “After an appropriate incubation time of 6, 24, or 72 h, the cells were washed thee time with PBS and fresh medium was applied for a further 24 h in each approach.” left out

A549 cells = assay: MTT cytotoxicity assay, A549; type: cell-based, human
Experimental: as §1, §2, §3

HaCaT cells [3] = assay: MTT cytotoxicity assay, HaCaT (non-cancer); type: cell-based, human; conditions: 48 h

| Compound | IC50 (HaCaT cells [1]; 24 h) | IC50 (HaCaT cells [1]; 72 h) | IC50 (PANC-1 cells; 24 h) | IC50 (PANC-1 cells; 72 h) | solubility in mixture of H2O:DMSO (100:1) (Solubility (qualitative)) | Experimental LogP (logPo/w) [2] | IC50 (MCF-7 cells; 24 h) | IC50 (MCF-7 cells; 48 h) | IC50 (MCF-7 cells; 72 h) | IC50 (A549 cells; 24 h) | IC50 (A549 cells; 72 h) | IC50 (HaCaT cells [3]) |
| --- | --- | --- | --- | --- | --- | --- | --- | --- | --- | --- | --- | --- |
| CCN(CC)C[P+](c1ccccc1)(c1ccccc1)[Ir-3]([Cl])([Cl])[C]1(C)C(C)=C(C)C(C)=C1C [1a, Ir(η^5-Cp*)Cl2Ph2PCH2N(CH2CH3)2] | 456 ± 11 µM | 320 ± 19 µM | 143 ± 3 µM | 91 ± 13 µM | well soluble | 3.03 | 189 ± 9 µM | 184 ± 6 µM | 85 ± 8 µM | 68 ± 5 µM | 12 ± 3 µM | 446 ± 26 µM |
| Ru(η^6-p-cymene)Cl2Ph2PCH2N(CH2CH3)2 [1b] | 446 ± 20 µM | 303 ± 20 µM | 146 ± 5 µM | 128 ± 14 µM | well soluble | 3.1 | 295 ± 12 µM | 352 ± 25 µM | 145 ± 15 µM | 59 ± 3 µM | 10 ± 1 µM | 545 ± 33 µM |
